According to patent US7253197B2, “Aminothiazole derivatives” (Hoffmann-La Roche Inc., priority 2002, dated 2007):

Target: T1, recombinant mouse NPY5-receptor (mNPY5) (Mus musculus, UniProt O70342)
T1 construct: The full-length cDNA encoding the mouse NPY5 (mNPY5) receptor was amplified from mouse brain cDNA; expressed in transfected cells; membrane preparation
T1 sequence (O70342 1-466): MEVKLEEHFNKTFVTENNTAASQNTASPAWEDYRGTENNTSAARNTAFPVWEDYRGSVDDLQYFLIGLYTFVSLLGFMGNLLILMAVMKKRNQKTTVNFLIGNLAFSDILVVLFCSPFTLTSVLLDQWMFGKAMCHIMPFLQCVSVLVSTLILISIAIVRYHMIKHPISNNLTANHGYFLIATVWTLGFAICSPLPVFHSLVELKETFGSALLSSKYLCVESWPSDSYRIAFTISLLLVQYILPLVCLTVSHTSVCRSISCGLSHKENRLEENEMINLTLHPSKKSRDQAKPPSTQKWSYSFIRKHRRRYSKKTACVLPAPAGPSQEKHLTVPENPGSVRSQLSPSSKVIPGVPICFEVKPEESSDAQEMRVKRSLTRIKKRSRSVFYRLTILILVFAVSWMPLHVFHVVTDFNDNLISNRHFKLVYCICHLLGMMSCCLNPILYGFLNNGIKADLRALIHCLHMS
Assay: Radioligand competition binding
Conditions: HEK293 membranes expressing mNPY5; displacement of 100 pM [125I]labeled PYY; 1 h at 22° C.; read-out: NPY5-R (mouse) IC50
From the text: The full-length cDNA encoding the mouse NPY5 (mNPY5) receptor was amplified from mouse brain cDNA using specific primers, designed based on the published sequence, and Pfu DNA-Polymerase. The amplification product was subcloned into the mammalian expression vector pcDNA3 using Eco RI and XhoI restriction sites. Positive clones were sequenced and one clone, encoding the published sequence was selected for generation of stable cell clones. The sequence is published in Borowsky B., et al., “Molecular Biology and Pharmacology of Multiple NPY Y5 Receptor Species Homologs”, Regul. Pept. 75-76:45-53 (1998).
Human embryonic kidney 293 (HEK293) cells were transfected with 10 μg mNPY5 DNA using the lipofectamine reagent. Two days after transfection, geneticin selection (1 mg/ml) was initiated and several stable clones were isolated. One clone was further used for pharmacological characterization.
Human embryonic kidney 293 cells (HEK293), expressing recombinant mouse NPY5-receptor (mNPY5) were broken by three freeze/thawing cycles in hypotonic Tris buffer (5 mM, pH 7.4, 1 mM MgCl2), homogenized and centrifuged at 72,000×g for 15 min. The pellet was washed twice with 75 mM Tris buffer, pH 7.4, containing 25 mM MgCl2 and 250 mM sucrose, 0.1 mM phenylmethylsulfonylfluoride and 0.1 mM 1,10-pheneanthrolin, resuspended in the same buffer and stored in aliquots at −80° C. Protein was determined according to the method of Lowry using bovine serum albumine (BSA) as a standard. […]

| SMILES | IC50 |
| --- | --- |
| CC(=O)c1cccc(Nc2ncc(C(=O)c3ccccc3C)s2)c1 [Example 61, 1-{3-[5-(2-Methyl-benzoyl)-thiazol-2-ylamino]-phenyl}-ethanone] | 86 nM |
| O=C(c1cnc(Nc2cccc(C(F)(F)F)c2)s1)c1ccccc1Cl [Example 29, (2-Chloro-phenyl)-[2-(3-trifluoromethyl-phenylamino)-thiazol-5-yl]-methanone] | 8 nM |
| N#Cc1cccc(Nc2ncc(C(=O)c3ccc(F)cc3)s2)c1 [Example 8, 3-[5-(4-Fluoro-benzoyl)-thiazol-2-ylamino]-benzonitrile] | 66 nM |
